Earlier results as cited in EP3320903B1 (HK inno.N Corporation, priority 2015, dated 2017).

pKa: ~4.6
SMILES: CC(C)c1nc(N(C)S(C)(=O)=O)nc(-c2ccc(F)cc2)c1/C=C/[C@@H](O)C[C@@H](O)CC(=O)O [rosuvastatin, (3R,5S,6E)-7-[4-(4-fluorophenyl)-2-(N-methylmethanesulfonamido)-6-(propan-2-yl)pyrimidin-5-yl]-3,5-dihydroxyhepten-6-oic acid]
